Reference: patent US8133474B2, “Sensors for fluorescence and magnetic resonance imaging” (Massachusetts Institute of Technology, priority 2006, dated 2012)

Assays:
[1] = Zinc-dependent MR relaxivity in buffered solutions; format: physicochemical; details: for zinc-induced change of MR signal in buffered solution: 1 mM Zn^2+, 25 mM Pipes pH 7, T1-weighted 200 μM agent, T2-weighted 500 μM agent with 100 mM KCl; for zinc-induced T2 change at high ionic strength: 100 mM KCl, buffered solution
Description: (§1) MRI samples prepared as described above were arrayed into microtiter plates and placed in a 40-cm-bore Avance 4.7 T MRI scanner (Bruker, Billerica, Mass.). Unused wells were filled with PBS, and imaging was performed on a 2-mm slice through the sample. A spin echo pulse sequence with multiecho acquisition was used. The TR was fixed for every acquisition, and the TE was in defined increments. For example, for TR=100 ms, TE varied from 10 to 80 ms, with a 10-ms increment. To adjust further the weight between T1 and T2, various TRs were applied and the TE increment was changed accordingly, if necessary. Data matrices of 512×128 points were acquired and zero-filled to 256 points in the second (phase encoding) dimension. Images were reconstructed and analyzed by using custom routines running in Matlab (Mathworks, Natick, Mass.).
Insertion of a paramagnetic manganese(III) ion into the porphyrin core of compound 1 rendered the resulting (DPA-C2)2-TPPS3Mn(III) complex (compound 2) an MRI contrast agent. The properties of compound 2 were investigated by using a spin echo pulse sequence to collect images at several echo times (TEs) in parallel. In some experiments, the repetition times (TRs) were varied so that both T1 and T2 could be evaluated. Multiwell plates were used for sample preparation, which allowed several conditions to be investigated in parallel. The well-studied MRI T1 agent, Mn-TPPS4, which contains a similar porphyrin platform as compound 2 but lacks a zinc-binding unit, was chosen as a reference compound.
The zinc-dependent MR relaxivity of compound 2 was first investigated in buffered solutions. Solutions of compound 2 or Mn-TPPS4 in 25 mM Pipes buffer at pH 7.0 were arrayed in microtiter plates. A spin echo pulse sequence was used to acquire an MRI image. […] Addition of 1 mM ZnCl2 to a 200 μM solution of compound 2 dissolved in 25 mM Pipes buffer at pH 7 slowed down the T1 relaxation. […] The T1 values of zinc-free and zinc-saturated solutions were determined at various concentrations of compound 2, from which T1 relaxivity (R1) values could be deduced.
The surrounding wells (not shown) were filled with PBS to maintain a homogenous magnetic field to mark the positions of the samples.
The zinc-induced T2 enhancement depended on the total concentration of compound 2.

HEK-293 cells [2] = assay: Cytotoxicity in HEK-293 suspension cells, cell density; format: cell-based; details: 100 μM, 24 h
HEK-293 cells [3] = assay: Subcellular localization by manganese atomic absorption spectroscopy of cell fractions; format: cell-based
Description: Cell monolayers were grown in 75-cm plates to 70% confluence and treated with 100 μM of either 2 or Mn-TPPS4, followed by incubation for 24 h. All fractionation steps were performed at 4° C. After twice pelleting by centrifugation (500×g) and washing with PBS, cells were lysed in a low-salt buffer and incubated on ice for 15 min. After centrifugation (420×g, 5 min) the pellet was resuspended in two packed-cell volumes of lysis buffer with 20 strokes of a 27-gauge syringe needle. After centrifugation (11,000×g, 20 min), the supernatant was retained (cytosolic fraction), and the nuclei were lysed in 0.42 M salt with 10 strokes of a 17-gauge syringe needle. After centrifugation (20,000×g, 5 min), the supernatant was obtained as the nuclear fraction.
Manganese atomic absorption spectroscopic analyses of samples were performed on an Aanalyst 300 instrument equipped with an HGA-800 graphite furnace (PerkinElmer, Wellesley, Mass.). Pyrolysis was performed at 1,400° C. for 30 s, and atomization was performed at 2,200° C. for 5 s.
To confirm the membrane permeability and further investigate the subcellular localization of compound 2, the cells were lysed, and nuclear and cytosolic fractions were extracted and analyzed by atomic absorption spectroscopy (AAS).

[4] = system: intracellular zinc in HEK-293 cells; assay: Cellular MR imaging of intracellular zinc, T1 and T2 of cell pellets; format: cell-based; details: for T2 of cell pellet, zinc-treated samples: then 200 μM Zn^2+
Description: as §1
To investigate zinc-induced relaxivity changes in compound 2 inside cells, cell pellets were prepared with and without exogenously introduced zinc, and their MR images were recorded and compared. The HEK-293 cell suspension was divided equally into two flasks after a 24-h treatment with 100 μM of compound 2 or Mn-TPPS4. A 200-μM portion of zinc pyrithione was then added to one of the samples and incubated for an additional 10 min. As in the solution studies, comparisons were made by using Mn-TPPS4 as a reference compound. In addition, an untreated cell sample was prepared as a control. The cell suspensions were pelleted by centrifugation, washed, and transferred into a multiwell plate for MRI analysis. A spin echo pulse sequence was used to acquire MRI images.
T1 and T2 were determined by a series of MR images with varied TR or TE, respectively. The values reported are the average from three separate experiments with standard deviations as indicated by the horizontal bars.

[5] = Absorption spectrum in buffered neutral aqueous solution; format: physicochemical; details: Soret band centered at 416 nm; 50 mM Hepes/100 mM KCl, pH 7.0
Description: (§2) Millipore water was used to prepare all aqueous solutions. All spectroscopic measurements were performed in buffered solutions containing 50 mM of the buffering species and 100 mM KCl adjusted to the desired pH. A glass electrode (Orion, Boston, Mass.), calibrated before each use, was used to determine solution pH. Solutions of Zn^2+ were prepared from 100 mM stocks of ZnCl2 in water. Absorption spectra were recorded on a 8453A diode array spectrophotometer (Hewlett-Packard, Palo Alto, Calif.) or a Cary 50 Bio UV-visible spectrophotometer (Varian, Palo Alto, Calif.), and fluorescence spectra were obtained with a Quanta Master 4 L-format scanning spectrofluorimeter (Photon Technology International, Lawrenceville, N.J.) equipped with an LPS-220B 75-W xenon lamp and power supply, an A-1010B lamp housing with integrated igniter, a switchable 814 photon-counting/analog photomultiplier detection unit, and a MD-5020 motor driver. Samples for absorption and emission measurements were held in 1×1-cm quartz cuvettes (3.5 mL volume; Stama, Atascadero, Calif.). […] Quantum yields were determined by reference to TPPS4 [0.16 in pH=7 aqueous solution].
The spectroscopic properties of compound 1 were evaluated in buffered neutral aqueous solution (50 mM Hepes/100 mM KCl, pH 7.0). […] Excitation was provided at 418 nm for the emission spectrum, and emission was detected at 648 nm for the excitation spectrum. […]

[6] = Fluorescence metal ion selectivity; details: 100 μM metal ion, 5 μM compound, 50 mM Hepes/100 mM KCl, pH 7.0, excitation 418 nm
Description: as §2, with “solution]. […]” for “solution].”
Even large excesses of Na^+, K^+, Ca^2+, and Mg^2+, which are biologically relevant, potentially competing, mobile metal ions, barely perturb the fluorescence of the zinc-free and zinc-bound forms of compound 1.

Fluorescence pH profile = format: physicochemical; details: pH 10.1 to pH 4.5; 5 μM in 100 mM KCl; excitation 416 nm, integrated 550 to 800 nm
Description: The pH-sensitivity of compound 1 was then studied. In some cases, it may be advantageous to reduce fluorescence turn-on by protonation for fluorescent zinc(II) sensors, as protonation can diminish the sensitivity of the sensor to zinc by increasing the background signal intensity. […] The pH values of the solution were adjusted by adding an appropriate volume of HCl or KOH stock solution. The fluorescence spectrum was measured upon excitation at 416 nm, and the fluorescence intensity was integrated from 550 to 800 nm.

all cell lines tested = assay: Membrane permeability in cell lines; format: cell-based
Description: Suspension cultures of HEK-293 enabled production of a sizeable cell pellet, which was then plated as an adherent monolayer for fluorescence imaging studies. The monolayer cultures were subcultured five times after the initial plating, grown to 70% confluence on glass cover slips and treated with compound 1 for fluorescence imaging. The cytotoxicity of compound 1 was evaluated in these adherent HEK-293 cells by incubating them with 5 μM of compound 1 for 24 h.

[7] = system: intracellular Zn^2+ in HEK-293 cells; assay: Intracellular zinc imaging by fluorescence microscopy; format: cell-based; details: 5 μM 24 h, 40 μM Zn^2+/pyrithione 10 min
Description: The cell fluorescence imaging experiments were performed with an Axiovert 200M inverted epifluorescence microscope (Zeiss, Thomwood, N.Y.) equipped with an EM-CCD digital camera C9100 (Hamamatsu Hamamatsu City, Japan) and a MS200 XY Piezo Z stage (Applied Scientific Instruments, Eugene, Oreg.). An X-Cite 120 metal-halide lamp (EXFO, Quebec, Canada) was used as the light source. The fluorescence images were obtained by using a x63 oil immersion objective lenses and a customized optical filter (exciter: D425/50; emitter: E6001p; beamsplitter: 460dcxr; Chroma Technology, Rockingham, Vt.). The microscope was operated with Volocity software (Improvision, Lexington, Mass.).
Fixed cells were investigated by fluorescence imaging using a customized optical filter (exciter: D425/50; emitter: E6001p; beamsplitter: 460dcxr), which was designed to match the excitation and emission profiles of compound 1. The cell nuclei were costained with the blue fluorescent dye Hoechst 33258 (0.4 μM). The HEK-293 cells were incubated with 5 μM of compound 1 for 24 h before fixing. […] The insets show the corresponding bright-field images (Scale bars: 25 μm).

[8] = HEK-293, 100 μM 24 h, no exogenous zinc
[9] = HEK-293, 100 μM 24 h, then 200 μM zinc pyrithione 10 min

Row | Compound | zinc-induced change of MR signal in buffered solution [1] | zinc-induced T2 change at high ionic strength [1] | cytotoxicity (cell density vs untreated control cells) (HEK-293 cells [2]) | cell membrane permeability (HEK-293 cells [3]; AAS of lysed cell fractions) | Mn in cytosol (AAS) (HEK-293 cells [3]; cells treated with 100 μM, 24 h, cytosolic fraction) [mg Mn/liter] | Mn in nuclear fraction (AAS) (HEK-293 cells [3]; cells treated with 100 μM, 24 h, nuclear fraction) [mg Mn/liter] | T1 of cell pellet, zinc-free sample [4, 8] [ms] | T2 of cell pellet, non zinc-treated samples [4, 8] [ms] | T2 of cell pellet, zinc-treated samples ([4]; HEK-293, 100 μM 24 h) [ms] | T1 of cell pellet, zinc-containing sample [4, 9] [ms] | cell membrane permeability from relative increase in T1-weighted MR signal ([4]; HEK-293 cells, 100 μM, 24 h, TR=100 ms, TE=10 ms) | T1 of cell pellet, absence of zinc [4, 8] [s] | T1 of cell pellet, presence of zinc [4, 9] [s] | extinction coefficient (ε) of Soret band [5] | selectivity of fluorescence turn-on for Zn^2+ over other metal ions [6] | fluorescence increase on acidification (Fluorescence pH profile) | membrane permeability (all cell lines tested) | change of intracellular red fluorescence upon addition of Zn^2+ [7]
1 | (DPA-C2)2-Mn(III)TPPS3 [compound 2] | lowers the MR signal intensity | zinc-induced enhancement of T2 relaxation | little cytoxicity | cell membrane-permeable | 0.78 | 5.62 | 510 | 69 | 25.0 | 80 | greater cell membrane permeability than Mn-TPPS4 | – | – | – | – | – | – | –
2 | O=S(=O)([O-])c1ccc(-c2c3nc(c(-c4ccc(S(=O)(=O)[O-])cc4)c4ccc([n-]4)c(-c4ccc(S(=O)(=O)[O-])cc4)c4ccc([n-]4)c(-c4ccc(S(=O)(=O)[O-])cc4)c4nc2C=C4)C=C3)cc1.[Mn+3] [Mn-TPPS4, reference compound] | almost no change | no zinc-induced T2 change | – | – | – | – | – | 107 | 94 | – | – | 1.1 | 1.0 | – | – | – | – | –
3 | O=S(=O)(O)c1ccc(-c2c3nc(c(-c4ccc(S(=O)(=O)O)cc4)c4ccc([nH]4)c(-c4c(NCCN(Cc5ccccn5)Cc5ccccn5)cccc4NCCN(Cc4ccccn4)Cc4ccccn4)c4nc(c(-c5ccc(S(=O)(=O)O)cc5)c5ccc2[nH]5)C=C4)C=C3)cc1 [compound 1, (DPA-C2)2-TPPS3] | – | – | – | – | – | – | – | – | – | – | – | – | – | 250,700 M^−1·cm^−1 | selective for Zn^2+ over many other monovalent and divalent metal ions | less than a factor of two | membrane-permeable | significant increase in the red fluorescence intensity
